Assay results taken from PubChem BioAssay AID1963862 (Molecular Pharmacology Branch, DTP, NCI, 2024).

Test system: KRAS patient-derived spheroids with HUVEC/MSC, viability
Assay: Anticancer human tumor 941728-121-R-J1-PDC patient-derived lung adenocarcinoma cell line growth inhibition [KRAS2]
Settings: for viability, T/C: stronger effect = lower value
Procedure, shortened: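 Combination screen of spheroid viability in tumor-cell co-cultures with endothelial (HUVEC) and mesenchymal stem cell stroma. Each agent was tested in half-log dilutions, topping at clinical Cmax or at 10 microM without a known Cmax.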

[1] = curve of first compound, second compound 0.1 µM
[2] = curve of first compound, second compound 0.316 µM
[3] = curve of first compound, second compound 1 µM
[4] = curve of first compound, second compound 3.16 µM
[5] = curve of first compound, second compound 10 µM
[6] = second compound 0.1 µM, first compound 0.0316 µM
[7] = second compound 0.1 µM, first compound 0.1 µM
[8] = second compound 0.1 µM, first compound 0.316 µM
[9] = second compound 0.1 µM, first compound 1 µM
[10] = second compound 0.1 µM, first compound 3.16 µM
[11] = second compound 0.1 µM, first compound 10 µM
[12] = second compound 0.316 µM, first compound 0.0316 µM
[13] = second compound 0.316 µM, first compound 0.1 µM
[14] = second compound 0.316 µM, first compound 0.316 µM
[15] = second compound 0.316 µM, first compound 1 µM
[16] = second compound 0.316 µM, first compound 3.16 µM
[17] = second compound 0.316 µM, first compound 10 µM
[18] = second compound 1 µM, first compound 0.0316 µM
[19] = second compound 1 µM, first compound 0.1 µM
[20] = second compound 1 µM, first compound 0.316 µM
[21] = second compound 1 µM, first compound 1 µM
[22] = second compound 1 µM, first compound 3.16 µM
[23] = second compound 1 µM, first compound 10 µM
[24] = second compound 3.16 µM, first compound 0.0316 µM
[25] = second compound 3.16 µM, first compound 0.1 µM
[26] = second compound 3.16 µM, first compound 0.316 µM
[27] = second compound 3.16 µM, first compound 1 µM
[28] = second compound 3.16 µM, first compound 3.16 µM
[29] = second compound 3.16 µM, first compound 10 µM
[30] = second compound 10 µM, first compound 0.0316 µM
[31] = second compound 10 µM, first compound 0.1 µM
[32] = second compound 10 µM, first compound 0.316 µM
[33] = second compound 10 µM, first compound 1 µM
[34] = second compound 10 µM, first compound 3.16 µM
[35] = second compound 10 µM, first compound 10 µM
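Also: spheroids exposed to agents for seven days before readout.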

Row | SMILES | IC50 [1] [nM] | IC50 [2] [nM] | IC50 [3] [nM] | IC50 [4] [nM] | IC50 [5] [nM] | viability, T/C [6] [%] | viability, T/C [7] [%] | viability, T/C [8] [%] | viability, T/C [9] [%] | viability, T/C [10] [%] | viability, T/C [11] [%] | viability, T/C [12] [%] | viability, T/C [13] [%] | viability, T/C [14] [%] | viability, T/C [15] [%] | viability, T/C [16] [%] | viability, T/C [17] [%] | viability, T/C [18] [%] | viability, T/C [19] [%] | viability, T/C [20] [%] | also measured
1 | COC(=O)c1ccc2c(C(=Nc3ccc(N(C)C(=O)CN4CCN(C)CC4)cc3)c3ccccc3)c(O)[nH]c2c1 + CC1OCC2(CCN(c3cnc(Sc4ccnc(N)c4Cl)c(N)n3)CC2)C1N | < 31.6 | < 31.6 | < 31.6 | < 31.6 | < 31.6 | 39.2 | 35.5 | 36.7 | 37.2 | 36.6 | 38.2 | 35.3 | 32.1 | 28.8 | 28.8 | 24.6 | 25.6 | 34.4 | 25.5 | 18.5 | viability, T/C [21]: 20.4%; viability, T/C [22]: 15.4%; viability, T/C [23]: 19.5%; viability, T/C [24]: 29.1%; viability, T/C [25]: 23.2%; viability, T/C [26]: 17%; viability, T/C [27]: 12.7%; viability, T/C [28]: 10.5%; viability, T/C [29]: 10.7%; viability, T/C [30]: 21.2%; viability, T/C [31]: 16%; viability, T/C [32]: 9.59%; viability, T/C [33]: 8.94%; viability, T/C [34]: 3.3%; viability, T/C [35]: 1.71%
2 | C=CC(=O)N1CCN(c2nc(OCC3CCCN3C)nc3c2CCN(c2cccc4cccc(C)c24)C3)CC1CC#N (stereo not given) |  |  |  |  |  |  |  |  |  |  |  |  |  |  |  |  |  |  |  |  | viability, T/C (compound 0.1 µM): 30.3% [middle of 16 runs]; viability, T/C (compound 1 µM): 27.2% [middle of 17 runs]; IC50 (compound alone, run of 07/12/2021): < 31.6 nM; IC50 (compound alone, run of 07/19/2021): < 31.6 nM; IC50 (compound alone, run of 07/26/2021): < 31.6 nM
3 | COC(=O)c1ccc2c(C(=Nc3ccc(N(C)C(=O)CN4CCN(C)CC4)cc3)c3ccccc3)c(O)[nH]c2c1 + COc1cc2nc(C)nc(NC(C)c3cc(N)cc(C(F)(F)F)c3)c2cc1OC1CCOC1 | 10000 | < 31.6 | < 31.6 | < 31.6 | < 31.6 | 108 | 45.3 | 46.4 | 70.2 | 46.2 | 48.5 | 45.5 | 43.4 | 40.5 | 49.7 | 42.7 | 42.9 | 42.4 | 40.9 | 37 | viability, T/C [21]: 41.6%; viability, T/C [22]: 35.1%; viability, T/C [23]: 42.2%; viability, T/C [24]: 43.5%; viability, T/C [25]: 36.7%; viability, T/C [26]: 41.7%; viability, T/C [27]: 42.6%; viability, T/C [28]: 22.6%; viability, T/C [29]: 0.49%; viability, T/C [30]: 26.2%; viability, T/C [31]: 21.7%; viability, T/C [32]: 21.1%; viability, T/C [33]: 16.9%; viability, T/C [34]: 0.62%; viability, T/C [35]: 1.04%
4 | Cn1nccc1Nc1nccc(-c2cc3c(s2)C(C)(C)N(CCN2CCOCC2)C3=O)n1 + C=CC(=O)N1CCN(c2nc(=O)n(-c3c(C)ccnc3C(C)C)c3nc(-c4c(O)cccc4F)c(F)cc23)C(C)C1 | < 31.6 | < 31.6 | < 31.6 | < 31.6 | < 31.6 | 23.9 | 23.4 | 19 | 19.6 | 17.7 | 20.7 | 25.4 | 24.4 | 20.2 | 18.9 | 16.8 | 21.4 | 26.1 | 27.4 | 21.1 | viability, T/C [21]: 19.9%; viability, T/C [22]: 17.8%; viability, T/C [23]: 29.4%; viability, T/C [24]: 30.6%; viability, T/C [25]: 31.4%; viability, T/C [26]: 24.9%; viability, T/C [27]: 23.6%; viability, T/C [28]: 22.9%; viability, T/C [29]: 32.3%; viability, T/C [30]: 36.4%; viability, T/C [31]: 38%; viability, T/C [32]: 30.7%; viability, T/C [33]: 30%; viability, T/C [34]: 34.2%; viability, T/C [35]: 57.5%
5 | CC1(C)CCC(CN2CCN(c3ccc(C(=O)NS(=O)(=O)c4ccc(NCC5CCOCC5)c([N+](=O)[O-])c4)c(Oc4cnc5[nH]ccc5c4)c3)CC2)=C(c2ccc(Cl)cc2)C1 + C=CC(=O)N1CCN(c2nc(=O)n(-c3c(C)ccnc3C(C)C)c3nc(-c4c(O)cccc4F)c(F)cc23)C(C)C1 | < 31.6 | < 31.6 | < 31.6 | < 31.6 | < 31.6 | 20.2 | 17.6 | 17.8 | 17.4 | 7.67 | 2.7 | 18.6 | 16.1 | 16.4 | 16.3 | 9.65 | 4.02 | 20.8 | 19.7 | 29.4 | viability, T/C [21]: 17%; viability, T/C [22]: 13.2%; viability, T/C [23]: 4.29%; viability, T/C [24]: 19.3%; viability, T/C [25]: 16.4%; viability, T/C [26]: 22.5%; viability, T/C [27]: 18.2%; viability, T/C [28]: 15.2%; viability, T/C [29]: 4.62%; viability, T/C [30]: 25.3%; viability, T/C [31]: 24.8%; viability, T/C [32]: 25.7%; viability, T/C [33]: 22.4%; viability, T/C [34]: 8.54%; viability, T/C [35]: 8.81%
